Where “and” joins values, the source holds several entries; their conditions need not be identical. Equal values may be shown once. Read-outs that look alike come from different tables or passages of the source. Where a SMILES comes first, the peptide text is derived from it.
Experiments:
[1] = system: cynoPSMA; details: previous reports; cited from earlier work
[2] = target: mPSMA (Mus musculus, UniProt O35409); details: cited from earlier work
[3] = target: T1, rhPSMA (Homo sapiens, UniProt Q04609); assay: PSMA inhibition assay; assay type: biochemical; details: for RFU: KM measurement; for Relative Fluorescence Units: glutamic acid readout, Amplex Red
T1 construct: purchased R&D research
Method: A 10 mM solution of N-acetyl-aspartyl-glutamate (NAAG) in 40 mM NaOH was diluted to 40 μM in Reaction Buffer (0.1 M Tris-HCl, pH=7.5), and the solution was added to a 384 well plate (10 μL per well). For KM measurements and KM negative controls (absence of PSMA), the NAAG solution was serially diluted 2-fold to obtain final NAAG concentrations ranging […]. […] To initiate reactions, 10 μL of rhPSMA ([…] in Reaction Buffer, R&D research) was added to each well. Reaction Buffer (10 μL) was added to the KM control series. The plate was incubated at 37° C. for 30 min, and then heated to 95° C. for 3 min. Levels of glutamic acid were quantified using Amplex® Red Glutamic Acid/Glutamate Oxidase Assay Kit (Invitrogen). Fluorescence intensities were measured using a SpectraMax Gemini EM microplate reader (GMI) with excitation and emission filters of 545 and 590 nm, respectively. Ki values were calculated using the Cheng-Prusoff equation from IC50 and KM values and these values were calculated using GraphPad Prism software. […] All reported data represent the mean of triplicate experiments.

[4] = Pharmacokinetics in rats, intravenous, sandwich-ELISA; assay type: in vivo, Sprague Dawley rats; details: rat, 0.5 mg/kg
Method: We first evaluated the pharmacokinetics of the P-targeting agent antibody conjugate. Male Sprague Dawley rats (Charles River) were injected intravenously at time zero at 1 and 5 mg/kg for P-targeting agent antibody conjugate or 0.5 mg/kg for the unconjugated UCHT1 Fab. Blood was collected at regular intervals to 32 hours and processed to measure drug concentrations using a sandwich-ELISA. […] Also, the small size of P-targeting agent antibody conjugate may be advantageous for penetrating solid tumors.

[5] = system: C4-2 (PSMA+) cells; assay: In vitro cytotoxicity assays, C4-2 cells with PBMCs, 24 and 48 hours (Example 5); assay type: cell-based, human
Method: Peripheral blood mononuclear cells (PBMCs) were purified from fresh healthy human donor blood by conventional Ficoll-Hypaque gradient centrifugation. Purified PBMCs were washed and incubated in flasks in RPMI media with 10% FBS for 1 hours to remove any adherent cells. C4-2 (PSMA+) cells (target cells) were dissociated with 0.05% tryspin/EDTA solution (HyClone) and washed with RPMI with 10% FBS. 1×10^4 target cells were mixed with PBMCs at 1:10 ratio in […], and incubated with different concentrations of conjugated and unconjugated Fabs ([…]) for 24 and 48 hours at 37° C. Cytotoxicity of each well was measured for LDH (lactate dehydrogenase) levels in supernatant using Cytotox-96 non-radioactive cytotoxicity assay kit (Promega). Lysis solution ([…], provided in the same kit) was added to wells with only target cells to get the maximum killing, and spontaneous killing was measured from wells with effector and target cells treated with vehicle ([…]). The absorbance at 490 nm was recorded using SpectraMax 250 plate reader (Molecular Devices Corp.). Percent cytotoxicity was calculated by: % Cytotoxicity=(Absorbanceexpt−Absorbancespontaneous average)/(Absorbancemax killing average−Absorbancespontaneous average)×100

[6] = system: C4-2 cells; assay: Prophylactic mouse xenograft model, C4-2 cells mixed with hPBMCs; assay type: in vivo, NOD/SCID mice; details: 2 mg/kg IV daily for 10 days from Day 4; monitored 6 weeks
Method: FIG. 12 depicts in vivo efficacy studies of P-targeting agent antibody conjugate. In the prophylactic model, 1×10^6 C4-2 cells were mixed with 2×10^6 PBMCs (1:2 ratio) in Matrigel and injected SC into the right shoulder of male NOD-SCID mice. P-targeting agent antibody conjugate, unconjugated Fab, or PBS (n=6) were administered at 2 mg/kg everyday for 10 days by IV starting on Day 4. Tumors were monitored by external caliper measurements for regular intervals for 6 weeks.
We next established a mouse xenograft model to evaluate the in vivo efficacy of P-targeting agent antibody conjugate. Immunodeficient NOD/SCID mice were subcutaneously injected with a mixture of 1×10^6 C4-2 cells and 2×10^6 hPBMCs in matrigel (BD Bioscience). After 4 days, treatment was initiated by injecting 2 mg/kg of drug via the tail vein and continued for 10 days (n=6). In a control group, mice were injected with an unconjugated mixture of P-Phthal (3) and UCHT1 wild-type Fab, and another group of mice was injected with vehicle alone (n=6). Tumor growth was monitored by external caliper measurement. […] After confirming the prophylactic efficacy of P-targeting agent antibody conjugate, we carried a xenograft model in which we delayed treatment until we observed the formation of a palpable tumor. […]

[7] = target: CD3 (Macaca fascicularis, UniProt Q95LI5); assay: Cyno cross-reactivity of anti-CD3 antibody; assay type: binding, cynomolgus macaque
[8] = average of three trials, read-out: Average Ki
[9] = enzyme-based inhibition assay, read-out: average Ki

T1 sequence (Q04609 whole entry): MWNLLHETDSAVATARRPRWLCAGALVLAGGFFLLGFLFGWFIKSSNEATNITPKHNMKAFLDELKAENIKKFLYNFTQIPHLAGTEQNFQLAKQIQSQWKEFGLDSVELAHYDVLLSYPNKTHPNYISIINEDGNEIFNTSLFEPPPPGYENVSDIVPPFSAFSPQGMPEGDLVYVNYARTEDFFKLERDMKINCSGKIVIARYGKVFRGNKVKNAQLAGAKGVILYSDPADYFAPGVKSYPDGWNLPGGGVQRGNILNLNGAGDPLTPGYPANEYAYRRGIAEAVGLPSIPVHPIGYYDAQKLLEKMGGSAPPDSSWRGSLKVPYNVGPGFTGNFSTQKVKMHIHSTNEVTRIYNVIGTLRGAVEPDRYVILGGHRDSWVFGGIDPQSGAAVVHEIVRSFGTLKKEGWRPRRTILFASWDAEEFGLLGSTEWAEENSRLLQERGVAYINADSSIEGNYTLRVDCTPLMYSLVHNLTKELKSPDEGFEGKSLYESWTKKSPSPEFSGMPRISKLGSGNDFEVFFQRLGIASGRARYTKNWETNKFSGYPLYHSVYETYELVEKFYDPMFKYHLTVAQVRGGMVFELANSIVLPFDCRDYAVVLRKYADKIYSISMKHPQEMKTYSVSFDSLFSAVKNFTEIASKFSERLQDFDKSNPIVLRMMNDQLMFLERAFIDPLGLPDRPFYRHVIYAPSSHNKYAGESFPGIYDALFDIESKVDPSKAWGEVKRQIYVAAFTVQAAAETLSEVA
CD3, sequence (Q95LI5 22-198): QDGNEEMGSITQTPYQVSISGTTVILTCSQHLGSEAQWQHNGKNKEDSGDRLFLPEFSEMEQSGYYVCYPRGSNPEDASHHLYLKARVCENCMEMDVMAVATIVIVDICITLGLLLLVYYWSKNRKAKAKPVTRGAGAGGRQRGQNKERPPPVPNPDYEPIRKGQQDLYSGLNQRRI
CD3, sequence (Q95LI8 22-171 partner): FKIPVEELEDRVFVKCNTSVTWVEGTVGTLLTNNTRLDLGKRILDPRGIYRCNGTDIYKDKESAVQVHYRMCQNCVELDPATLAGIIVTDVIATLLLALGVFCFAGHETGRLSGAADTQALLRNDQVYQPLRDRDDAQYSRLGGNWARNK
CD3, sequence (Q95LI7 23-181 partner): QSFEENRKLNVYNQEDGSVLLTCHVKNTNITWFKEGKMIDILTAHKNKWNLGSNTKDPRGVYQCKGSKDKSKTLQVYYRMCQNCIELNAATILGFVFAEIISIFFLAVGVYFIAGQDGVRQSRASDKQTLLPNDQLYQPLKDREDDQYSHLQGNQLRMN
mPSMA, sequence (O35409 whole entry): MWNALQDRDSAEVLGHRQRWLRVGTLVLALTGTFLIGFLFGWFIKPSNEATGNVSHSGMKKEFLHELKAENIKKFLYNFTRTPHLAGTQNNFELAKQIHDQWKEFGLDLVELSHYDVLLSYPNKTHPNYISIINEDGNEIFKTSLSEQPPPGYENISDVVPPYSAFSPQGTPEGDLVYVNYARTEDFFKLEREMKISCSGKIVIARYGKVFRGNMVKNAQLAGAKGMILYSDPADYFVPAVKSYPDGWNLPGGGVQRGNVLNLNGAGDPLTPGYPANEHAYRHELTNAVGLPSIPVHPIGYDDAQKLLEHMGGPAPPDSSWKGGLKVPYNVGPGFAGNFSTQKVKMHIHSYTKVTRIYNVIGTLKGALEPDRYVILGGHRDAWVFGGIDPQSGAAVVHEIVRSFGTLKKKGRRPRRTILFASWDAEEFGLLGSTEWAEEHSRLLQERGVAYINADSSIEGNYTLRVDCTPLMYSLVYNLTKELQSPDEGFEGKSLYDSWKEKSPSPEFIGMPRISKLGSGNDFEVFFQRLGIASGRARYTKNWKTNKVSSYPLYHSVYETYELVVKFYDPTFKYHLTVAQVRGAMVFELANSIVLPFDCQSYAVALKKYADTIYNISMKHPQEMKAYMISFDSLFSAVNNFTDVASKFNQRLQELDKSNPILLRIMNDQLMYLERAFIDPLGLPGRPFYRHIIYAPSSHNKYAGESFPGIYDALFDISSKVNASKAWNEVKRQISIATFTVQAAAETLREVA

Row | Molecule | IC50 ([3]; Trials 1-3) | Ki [3, 8] | Relative Fluorescence Units ([3]; inhibitor 0.0000256 μM) | Relative Fluorescence Units ([3]; inhibitor 0.000128 μM) | Relative Fluorescence Units ([3]; inhibitor 0.00064 μM) | Relative Fluorescence Units ([3]; inhibitor 0.0032 μM) | Relative Fluorescence Units ([3]; inhibitor 0.016 μM) | Relative Fluorescence Units ([3]; inhibitor 0.08 μM) | Relative Fluorescence Units ([3]; inhibitor 0.4 μM) | Relative Fluorescence Units ([3]; inhibitor 2 μM) | Relative Fluorescence Units ([3]; inhibitor 10 μM) | Relative Fluorescence Units ([3]; inhibitor 50 μM) | Ki [3, 9] | also measured
1 | O=C(O)CCC(NC(=O)NC(CCC(=O)O)C(=O)O)C(=O)O (stereo not drawn) [DUPA, 2-[3-(1,3-dicarboxypropy)ureidol]pentanedioic acid] |  |  |  |  |  |  |  |  |  |  |  |  |  | inhibition of glutamate carboxy peptidase activity of cynoPSMA (in words) [1]: efficiently inhibited; binding to mPSMA (in words) [2]: strongly binds
2 | CC(=O)N[C@@H](CC(=O)O)C(=O)N[C@@H](CCC(=O)O)C(=O)O [NAAG, N-acetyl-aspartyl-glutamate, reference compound] (Ac-Asp-Glu-OH) |  |  |  |  |  |  |  |  |  |  |  |  |  | RFU ([3]; NAAG 0.15625 μM): 403; RFU ([3]; NAAG 0.3125 μM): 400.6455; RFU ([3]; NAAG 0.625 μM): 422.2; RFU ([3]; NAAG 1.25 μM): 434.8145; RFU ([3]; NAAG 2.5 μM): 447; RFU ([3]; NAAG 5 μM): 480.622; RFU ([3]; NAAG 10 μM): 549.6; RFU ([3]; NAAG 20 μM): 653.474; Km ([3]; substrate NAAG): 0.288 µM
3 | NOCC(=O)NCCOCCOCCNc1cc(NCCOCCOCCNC(=O)CCCCCCCNC(=O)CCC(NC(=O)NC(CCC(=O)O)C(=O)O)C(=O)O)c([N+](=O)[O-])cc1[N+](=O)[O-] (stereo not drawn) [P-DNP] | 7.28 nM and 4.46 nM and 4.58 nM | 0.0482 nM | 1650.519 | 1558 | 1413.9875 | 1123.0625 | 896.8 | 704.2 | 622.7 | 586.843 | 581.8 | 525.6755 |  | 
4 | NOCC(=O)NCCOCCOCCNC(=O)c1ccc(C(=O)NCCOCCOCCNC(=O)CCCCCCCNC(=O)CCC(NC(=O)NC(CCC(=O)O)C(=O)O)C(=O)O)cc1 (stereo not drawn) [P-Phthal] | 208 nM and 397 nM and 223 nM | 1.98 nM | 1609 | 1592.5445 | 1633.913 | 1542.606 | 1387.603 | 1274 | 1021 | 798.9 | 688.1815 | 581.035 | 2 nM | 
5 | NOCC(=O)NCCOCCOCCOCCNC(=O)c1ccc(C(=O)NCCCCCCc2cn(CCCC[C@H](NC(=O)N[C@@H](CCC(=O)O)C(=O)O)C(=O)O)nn2)cc1 [P-TriA, (S)-2-(3-((S)-5-(4-(6-(4-(1-(aminooxy)-2-oxo-6,9,12-trioxa-3-azatetradecan-14-ylcarbamoyl)benzamido)hexyl)-1H-1,2,3-triazol-1-yl)-1-carboxypentyl)ureido)pentanedioic acid] |  | 0.00478 nM | 1619 | 1499.6145 | 1259 | 950.487 | 817.1 | 664.949 | 586.721 | 562.9 | 599.969 | 559.8 | 0.0048 nM | Ki ([3]; Trials 1-3, Cheng-Prusoff equation from IC50 and KM, read-out: Ki): 0.00613 nM and 0.0023 nM and 0.00591 nM; enhanced affinity ([3]; compared to P-Phthal): more than 400 fold
6 | wt-UCHT1 |  |  |  |  |  |  |  |  |  |  |  |  |  | circulating half-life [4]: ~1 h; % Cytotoxicity ([5]; 24 h, 0.0512 pM): −0.1753%; % Cytotoxicity ([5]; 24 h, 0.256 pM): −0.8764%; % Cytotoxicity ([5]; 24 h, 1.28 pM): −0.9115%; % Cytotoxicity ([5]; 24 h, 6.4 pM): −0.4733%; % Cytotoxicity ([5]; 24 h, 32 pM): −0.7537%; % Cytotoxicity ([5]; 24 h, 160 pM): −0.4032%; % Cytotoxicity ([5]; 24 h, 800 pM): 1.192%; % Cytotoxicity ([5]; 24 h, 4000 pM): 1.858%; % Cytotoxicity ([5]; 48 h, 0.01024 pM): −0.609%; % Cytotoxicity ([5]; 48 h, 0.0512 pM): −1.023%; % Cytotoxicity ([5]; 48 h, 0.256 pM): −0.5196%; % Cytotoxicity ([5]; 48 h, 1.28 pM): −0.0812%; % Cytotoxicity ([5]; 48 h, 6.4 pM): −0.4872%; % Cytotoxicity ([5]; 48 h, 32 pM): −1.104%; % Cytotoxicity ([5]; 48 h, 160 pM): −0.9419%; % Cytotoxicity ([5]; 48 h, 800 pM): 4.872%; tumor growth (in words) [6]: developed rapid tumors; cyno cross-reactivity (in words) [7]: not sufficiently cyno cross-reactive
